Experimental findings from PubChem BioAssay AID624491 (Broad Institute, 2012) are described below.

Calls of active or inactive are those of the source.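 How the source made its calls: active means fitted curve crossing a set activation limit at or below the highest valid dose tested; inconclusive means flat fit at 30 to 70% activation, or poor fit; inactive means the rest, including signal decreases.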

This test relates to D54 ERlucT glycosylation luciferase reporter, luminescence, 24 h. Nature of the test: blockers of NLG process in reporter cells – D54 ERlucT cells, luminescence, cherry-picks, dose response (AID 624491).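 Further: signal gain reflects blocked N-linked glycosylation of a luciferase reporter; actives raise luciferase signal so AC26 marks activators of the reporter.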

For the compound `CC(=O)c1cccc(-c2ccnc3c2CC(C(=O)NCc2ccc(F)c(F)c2)O3)c1` (stereo not given), the AC26 is 1370 nM.
Consider `COc1cc(C(=O)NCCOc2cc(C)cc(C)c2)cc(OC)c1OC`, for which the AC26 was 2370 nM.
As for `CN1CCN(C(c2ccc(Br)cc2)c2cc(Cl)c3cccnc3c2O)CC1` (stereo not given), the AC26 is 1810 nM.
With `CCN(CC)CCn1c2ccccc2c2nc3ccc([N+](=O)[O-])cc3cc21`, the AC26 was 7740 nM.
The figure for `CC(=O)O[C@H]1C(=O)[C@@]2(C)C([C@H](OC(=O)c3ccccc3)[C@]3(O)C[C@H](O)C(C)=C1C3(C)C)[C@]1(OC(C)=O)CO[C@@H]1C[C@H]2O` (stereo not given in full) is 6460 nM.
Take `COc1ccc([C@@H]2[C@@H]3C(=O)N(C(C)(C)C)C(=O)[C@@H]3[C@]3(Cc4ccccc4)C(=O)N(c4cccc(Cl)c4)C(=O)N23)cc1`: the AC26 was 2990 nM.
`CC(NC(=O)c1cccc2ccccc12)c1ccc2c(c1)CCCC2` (stereo not given): the AC26 was 6480 nM.
For `CC(=O)c1cccc(Nc2c3c(nc4ccccc24)CCC3)c1`, the AC26 was 819 nM.
Consider `c1cnc2nc3c4ccccc4c4ccccc4c3nc2c1`, for which the AC26 is 10200 nM.
With `O=c1[nH]c(=O)n([C@H]2C[C@H](O)[C@@H](CO)O2)cc1Br`, the AC26 is 1690 nM.
As to `O=C(NCCc1ccccc1)c1cc(-c2ccco2)on1`, the AC26 was 3780 nM.
In the case of `CC(=O)NC(=C(Cl)Cl)S(=O)(=O)c1ccccc1`, the AC26 was 1080 nM.
The figure for `COc1cc2c(cc1OC)C(c1ccccc1)N(C(=O)c1ccco1)CC2` (stereo not given) is 315 nM; for `COc1ccc(Nc2nc(N(C)c3ccccc3)nc(N)c2[N+](=O)[O-])cc1` it is 271 nM; for `C[C@@]12C(=O)Nc3cc(F)ccc3C(=O)N1[C@H]1c3ccccc3OC[C@@H]1[C@@H]2c1ccccc1` it is 1870 nM.
Consider `CCC12CCC3c4ccc(O)cc4CCC3C1CC(O)C2O` (stereo not given), for which the AC26 is 10000 nM.
On to `c1ccc2c(c1)C1=NCCN1c1ccccc1-2`, for which the AC26 is 544 nM.
The figure for `COc1ccc(C(=O)NCC(c2ccco2)N2CCc3ccccc32)cc1` (stereo not given) is 2300 nM.
Turning to `CCN1CCN(c2ccc([N+](=O)[O-])cc2C(=O)c2ccc(Cl)cc2)CC1`, the AC26 is 11200 nM.
For the compound `COc1ccc(-c2ccnc(-c3ccncc3)n2)cc1`, the AC26 is 1390 nM.
With `CC1(C)Cc2c(c(N3CCOCC3)nc3snc(N)c23)CO1`, the AC26 was 502 nM.
Regarding `COc1cc(C(=O)OCCc2cc3ccccc3c(=O)o2)cc(OC)c1OC`, the AC26 was 562 nM.
`Cc1cccc2c1NC(=O)/C2=C\C(=O)c1cccs1`: the AC26 is 4260 nM.
For `CC(=O)Nc1cc(-c2cccc(C(=O)N(C)C)c2)cn2c(-c3cccc(C(=O)N(C)C)c3)cnc12`, the AC26 was 897 nM.
Turning to `Cc1ccc(N2C(=O)NC(=O)/C(=C\C=C\c3ccco3)C2=O)cc1C`, the AC26 is 875 nM.
To `COc1cc(/C=C/c2onc(C)c2[N+](=O)[O-])cc(OC)c1OC` belongs 864 nM.
For the compound `CS(=O)(=O)c1cccc(C(=O)Nc2ccc(-c3nc4ccccc4[nH]3)cc2)c1`, the AC26 was 3070 nM.
In the case of `CCOc1cc(N2CCOCC2)c(OCC)cc1NC(=O)c1[nH]c(C)c(C(C)=O)c1C`, the AC26 was 1620 nM.
Turning to `Oc1ccc(CCNc2c3ccccc3nc3ccccc23)cc1O`, the AC26 is 638 nM.
On to `CC1CN(C(=O)c2ccc(COc3ccc4ccccc4c3)o2)CC(C)O1` (stereo not given), for which the AC26 was 11200 nM.
For the compound `O=C(NC1CCCCC1)c1ccc([N+](=O)[O-])o1`, the AC26 was 852 nM.
For `NC(=O)CC(NC(=O)Cc1ccc(Br)cc1)c1ccc(NC2CC3CCC2C3)c([N+](=O)[O-])c1` (stereo not given), the AC26 is 32.6 nM.
`COc1ccc(N2CCc3c(C)nc4c(OC)cccc4c32)cc1`: the AC26 was 368 nM.
On to `COc1ccccc1OCC(=O)N/N=C/C=C/c1ccc([N+](=O)[O-])o1`, for which the AC26 is 432 nM.
To `COc1ccc2c(c1)[C@H]1[C@H](CO2)[C@H](c2ccccc2)[C@]2(C)C(=O)Nc3ccc(Br)cc3C(=O)N12` belongs 188 nM; to `O=C(NCCN1C(=O)S/C(=C\c2ccccc2F)C1=O)C1=COCCO1`, 52.9 nM.
Turning to `COc1ccc(/C=N\NC(=O)c2ccccc2F)cc1COc1ccc(F)cc1F`, the AC26 is 3550 nM.
With `CC(=O)c1cccc(NC(=O)CSc2ncc(C(=O)Nc3ccccc3)c(=O)n2C)c1`, the AC26 was 1350 nM.
With `Cc1ccc2nc(-c3ccc(SCC(=O)Nc4nnc(C)s4)nc3)[nH]c2c1`, the AC26 was 4860 nM.
In the case of `O=C(CN1C(=O)NC2(CCCCCC2)C1=O)Nc1ccc2c(c1)CCC2`, the AC26 is 1970 nM.
With `CCOC(=O)C1=CC[C@@H](c2ccncc2)N(S(=O)(=O)c2ccc(C)cc2)C1`, the AC26 is 12100 nM.
`CC(C)COc1ccc(C(=O)OCC(=O)NCc2cccs2)cc1`: the AC26 was 1750 nM.
Consider `Cn1cnc(Sc2ncnc3nc[nH]c23)c1[N+](=O)[O-]`, for which the AC26 was 1140 nM.
`O=C1/C(=C\c2ccc(Cl)cc2)CCC1CNc1ccc(Cl)cc1` (stereo not given): the AC26 is 5490 nM.
To `Cc1nnc2c(NC3CCCCC3)nc3ccccc3n12` belongs 2760 nM; to `CCOc1ccc(C(=O)n2cc(C(=O)OC)c3ccccc32)cc1`, > 19500 nM (inactive).
`COc1ccc2c(c1)C(=O)N1[C@H]3c4cc(C)ccc4OC[C@@H]3[C@H](c3ccccc3)[C@]1(C)C(=O)N2`: the AC26 is 358 nM.
For `COc1cc(/C=N/n2cnc3scc(-c4cccs4)c3c2=O)cc(OC)c1OC`, the AC26 was 701 nM.
With `CCOc1ncccc1C(=O)Nc1cc2c(cc1Br)OCCO2`, the AC26 was 7780 nM.
On to `Clc1ccc(C2=Nn3c(nnc3-c3cc(-c4ccccc4)n[nH]3)SC2)cc1`, for which the AC26 was 5130 nM.
On to `Cc1ccc2nc(/C(C#N)=C/c3cn[nH]c3-c3ccc(F)cc3)[nH]c2c1`, for which the AC26 was 1170 nM.
The figure for `COc1cc(C2c3[nH]c4ccccc4c3CC3COC(=O)N32)cc(OC)c1O` (stereo not given) is 780 nM.
To `Cc1nnc2c(NC3CCCC3)nc3ccccc3n12` belongs 5060 nM; to `COc1ccc(/C(C)=N/NC(=O)c2ccccc2OCc2ccccc2)c(OC)c1`, 121 nM.
In the case of `COc1ccc(NC(=O)c2cc(S(=O)(=O)N(C)C)ccc2N2CCCC2)cc1Cl`, the AC26 is 4800 nM.
For the compound `COc1ccc2c(c1)OC[C@H]1[C@H]2N2C(=O)c3cc(OC)ccc3NC(=O)[C@@]2(C)[C@H]1c1ccccc1`, the AC26 is 1360 nM.
In the case of `COc1ccc(-n2c(=S)[nH]c3cc(C(=O)Nc4ccc(C)c(F)c4)ccc3c2=O)c(OC)c1`, the AC26 was 9690 nM.
Consider `CC(CCc1ccco1)NC(=O)CCc1nnc2ccc(NCc3ccc(Cl)cc3)nn12` (stereo not given), for which the AC26 is 1260 nM.
`CN(C)Cc1c(C(=O)N/N=C/c2ccccc2OCc2c(F)cccc2Cl)nnn1-c1nonc1N`: the AC26 is 4210 nM.
Consider `COC(=O)c1cc(=O)n(-c2ccc(F)cc2)c(=Nc2ccc(F)cc2)s1`, for which the AC26 is 4230 nM.
`COc1ccc(Cl)cc1S(=O)(=O)Nc1ccc2c(c1)n(C)c(=O)n2C`: the AC26 was 1470 nM.
Consider `CCn1c(=O)c2cc(C(=O)NCCN(C)C)sc2c2ccccc21`, for which the AC26 is 5230 nM.
For the compound `COC(=O)C(=Cc1ccc(-c2ccsc2C(=O)OC)o1)C(=O)OC`, the AC26 was 9800 nM.
On to `CCCCc1ccc(N/C(N)=N/c2nc(C)cc(C)n2)cc1`, for which the AC26 was 4690 nM.
Turning to `COc1ccc(-c2nc3c(C(=O)NCCN(C)C)cccc3c3ccccc23)cc1`, the AC26 is 4160 nM.
Regarding `CC1CC(C)CN(C(=O)/C=C/c2ccc([N+](=O)[O-])s2)C1` (stereo not given), the AC26 is 8460 nM.
To `Cc1cc(=O)oc2cc(OCC(=O)N3c4ccccc4CC3C)ccc12` (stereo not given) belongs 1090 nM; to `COc1cc2c(cc1OC)CN(C(=O)c1ccc3nc[nH]c3c1)CC2`, 6320 nM.
Turning to `Cn1c(=O)[nH]c(=O)c2c1nc(NN)n2CCOc1ccccc1`, the AC26 was 2570 nM.
For `CC(=O)c1cccc(-c2ccnc3c2CC(C(=O)NCc2ccco2)O3)c1` (stereo not given), the AC26 is 967 nM.
With `COc1ccc2c(c1)C(=O)N1[C@H]3c4cc(OC)ccc4OC[C@@H]3[C@H](c3ccccc3)[C@]1(C)C(=O)N2`, the AC26 is 197 nM.
In the case of `Nc1cc2c3c(cccc3c1)C(=O)N(CCN1CCCC1)C2=O`, the AC26 is 275 nM.
As for `CCc1cc2c(=O)n(Cc3ccco3)c(SCc3c(C)noc3C)nc2s1`, the AC26 is 249 nM.
The figure for `C=CCOc1ccccc1C(=O)/C=C1/C(=O)Nc2ccccc21` is 3000 nM.
The figure for `CCN(CC)CCNC(=O)c1cc2c(=O)n(C)c3ccccc3c2s1` is 3940 nM; for `CCOC(=O)N1CCN(C(=O)c2cc(-c3ccncc3)nc3ccccc23)CC1` it is 1410 nM.
Regarding `CCOC(=O)c1[nH]c(C)c(C(=O)OCC(=O)NC(C)c2ccc(F)cc2)c1C` (stereo not given), the AC26 was 3150 nM.
On to `c1ccc(-c2cc(NCCN3CCCCC3)c3ccccc3n2)cc1`, for which the AC26 is 2910 nM.
Regarding `O=S(=O)([N-]c1nc2ccccc2nc1-n1cc[n+](Cc2ccccc2)c1)c1ccc(Cl)cc1`, the AC26 was 101 nM.
Take `Cc1ccc(-c2cc(C(=O)NCC(c3ccccc3)N(C)C)c3ccccc3n2)o1` (stereo not given): the AC26 was 11400 nM.
To `CC(C)c1ccc(/C=N/NC(=O)c2ccccc2Cl)cc1` belongs 1910 nM; to `CCc1nnc2n1N=C(c1ccc(OC)cc1)CS2`, 6840 nM.
With `CCCOc1ccc2ccccc2c1/C=N/n1c(C)nnc1-n1nc(C)cc1C`, the AC26 is 503 nM.
The figure for `CC(=O)Nc1cccc(-c2ccnc3c2CC(C)(C(=O)NCCc2ccccc2)O3)c1` (stereo not given) is 1370 nM; for `CN(CCCNC(=O)CCCOc1cc(=O)n(C)c2ccccc12)Cc1ccccc1` it is 5230 nM.
`O=C(CCl)N1CCCC1c1ccc2c(c1)OCCO2` (stereo not given): the AC26 was 608 nM.
`COc1cc(NC(=O)c2noc(C)c2[N+](=O)[O-])c(OC)cc1Cl`: the AC26 was 632 nM.
As to `CC(C)(C)c1ccc(OCc2ccc(C(=O)Nc3cccnc3)o2)cc1`, the AC26 was 7560 nM.
Turning to `Nc1nc(-c2ccccc2)cc(-c2ccccc2O)n1`, the AC26 was 4980 nM.
With `CN(C)CCCN1C(=O)c2cccc3cccc(c23)C1=O`, the AC26 is 3880 nM.
Turning to `CCOc1ccc(/C=C2\SC(N3CCCCC3)=NC2=O)cc1`, the AC26 was 1100 nM.
Take `COC(=O)C1=C(c2cc3ccccc3o2)C[C@@H]2CC[C@H]1N2C(=O)N1CCCCC1`: the AC26 is 14200 nM.
Take `COc1ccc(CCCNC(=O)C2Cc3c(-c4cccc(C(C)=O)c4)ccnc3O2)cc1` (stereo not given): the AC26 is 12600 nM.
Consider `COc1ccccc1CCC(=O)Nc1ccc2c(c1)c(=O)n(C)n2-c1cccs1`, for which the AC26 was 124 nM.
As to `CCOC(=O)c1c(C)c(C(=O)Nc2cc(F)ccc2F)c(C)n1C`, the AC26 is 12600 nM.
